# Strand notation (5' to 3'): a small letter for the sugar, then the base; units joined by * are phosphorothioate-linked, units joined directly phosphodiester-linked; [ ] holds rarer units or linkages, { } end groups; capitals alone tell only the bases. k = constrained ethyl (cEt); [5mC] = 5-methylcytosine; d = 2'-deoxy (DNA)
# Test system: Yap1 mRNA
# Assay: Antisense inhibition of human Yap1 in A-431 cells by cEt gapmers, single dose (Example 3, RTS36584)
# Assay type: cell-based
# Details: Table 8; A-431 cells, 5,000 cells per well, free uptake, 2,000 nM, approximately 48 hours; RTS36584; normalized to RIBOGREEN; Yap1 mRNA relative to untreated control cells
# In short: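 Values are % untreated control: Yap1 mRNA by quantitative RT-PCR (RTS36584), normalized to total RNA by RiboGreen. Before RNA isolation, 5,000 A-431 cells per well were exposed ~48 h to 2,000 nM 16-mer cEt gapmer, delivered without transfection reagent.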
row,Substance,YAP1 (% UTC)
1,958408 (antisense k[5mC]*kT*kA*dT*dA*dT*dA*dT*dG*dG*dT*dA*dG*kT*k[5mC]*kT) [Compound 958408],20 % UTC
2,958387 (antisense kG*kA*kG*dG*d[5mC]*dG*d[5mC]*dG*d[5mC]*dG*d[5mC]*dA*dT*kT*kG*kT) [Compound 958387],131 % UTC
3,958384 (antisense k[5mC]*k[5mC]*kT*dT*d[5mC]*d[5mC]*dT*d[5mC]*dT*dG*d[5mC]*dG*d[5mC]*kG*k[5mC]*k[5mC]) [Compound 958384],131 % UTC

# Same assay, conditions: Table 9; A-431 cells, 5,000 cells per well, free uptake, 2,000 nM, approximately 48 hours; RTS36584; normalized to RIBOGREEN; Yap1 mRNA relative to untreated control cells
row,Substance,YAP1 (% UTC)
1,958711 (antisense k[5mC]*k[5mC]*kA*dA*dA*dT*dA*dA*dG*dG*dA*dT*d[5mC]*kT*kG*kT) [Compound 958711],34 % UTC
2,958681 (kA*kA*kT*dT*dA*dA*d[5mC]*dA*d[5mC]*d[5mC]*dT*dG*dA*kG*k[5mC]*kT; antisense) [Compound 958681],84 % UTC
3,958476 (antisense kT*kT*k[5mC]*d[5mC]*dG*dG*dT*dG*d[5mC]*dA*dT*dG*dT*kG*kT*k[5mC]) [Compound 958476],2 % UTC
4,958746 (antisense kG*kT*kT*dA*dT*d[5mC]*d[5mC]*dT*d[5mC]*dT*dA*dT*dA*kG*kT*k[5mC]) [Compound 958746],22 % UTC
5,958736 (antisense kG*kT*kG*dA*dT*dA*dT*dG*dG*dA*dT*dT*d[5mC]*kT*kG*kT) [Compound 958736],3 % UTC
6,958551 (k[5mC]*kT*k[5mC]*d[5mC]*dT*dG*dT*dA*dG*dA*d[5mC]*dA*d[5mC]*kA*kT*kA; antisense) [Compound 958551],5 % UTC
7,958791 (antisense k[5mC]*kA*kT*dA*dA*dG*dA*dA*dA*dA*dG*dA*d[5mC]*kG*kA*k[5mC]) [Compound 958791],123 % UTC

# Same assay, conditions: Table 10; A-431 cells, 5,000 cells per well, free uptake, 2,000 nM oligonucleotide, approx. 48 hours; primer probe set RTS36584; Yap1 mRNA normalized to RIBOGREEN, percent of untreated control
row,Substance,YAP1 (% UTC)
1,958652 (kG*k[5mC]*kT*dA*d[5mC]*dG*dA*d[5mC]*dG*dG*d[5mC]*dT*dG*kG*k[5mC]*k[5mC]; antisense) [Compound 958652],136 % UTC
2,958782 (antisense kA*kT*kG*dG*dT*d[5mC]*dT*d[5mC]*d[5mC]*d[5mC]*dA*dG*dT*k[5mC]*kA*k[5mC]) [Compound 958782],20 % UTC

# Same assay, conditions: Table 11; A-431 cells, 5,000 cells per well, free uptake, 2,000 nM oligonucleotide, approx. 48 hours; primer probe set RTS36584; Yap1 mRNA normalized to RIBOGREEN, percent of untreated control
row,Substance,YAP1 (% UTC)
1,958553 (k[5mC]*k[5mC]*kA*dT*dT*dA*dT*dT*dA*d[5mC]*dT*d[5mC]*d[5mC]*kT*kG*kT; antisense) [Compound 958553],1 % UTC
2,958763 (antisense k[5mC]*kA*k[5mC]*dA*dA*dT*dA*d[5mC]*dA*dA*dG*dA*dT*kG*k[5mC]*kA) [Compound 958763],3 % UTC
3,958738 (antisense kT*k[5mC]*kT*dA*dT*dA*dT*dG*dT*dT*dT*d[5mC]*d[5mC]*k[5mC]*k[5mC]*k[5mC]) [Compound 958738],11 % UTC

# Same assay, conditions: Table 12; A-431 cells, 5,000 cells per well, free uptake, 2,000 nM modified oligonucleotide, approx. 48 hours; RTS36584; normalized to RIBOGREEN; Yap1 mRNA relative to untreated control cells
row,Substance,YAP1 (% UTC)
1,958629 (antisense k[5mC]*k[5mC]*k[5mC]*dG*dA*dG*dT*dG*dG*dG*d[5mC]*dT*dA*kA*k[5mC]*kT) [Compound 958629],128 % UTC

# Same assay, conditions: Table 13; A-431 cells, 5,000 cells per well, free uptake, 2,000 nM modified oligonucleotide, approx. 48 hours; RTS36584; normalized to RIBOGREEN; Yap1 mRNA relative to untreated control cells
row,Substance,YAP1 (% UTC)
1,958775 (antisense kG*kT*k[5mC]*dT*dA*dT*dA*d[5mC]*dG*dG*dG*dA*dG*kA*kT*kT) [Compound 958775],29 % UTC
2,958580 (kA*kT*kA*dA*dT*d[5mC]*dT*dT*dA*dA*dT*d[5mC]*dT*kG*kT*kG; antisense) [Compound 958580],4 % UTC
3,958650 (kT*k[5mC]*kA*dA*dT*dT*dG*dA*dG*dT*d[5mC]*dT*dG*k[5mC]*kT*kA; antisense) [Compound 958650],3 % UTC
4,958790 (antisense kG*kA*kA*dA*dA*dG*dA*d[5mC]*dG*dA*d[5mC]*dA*d[5mC]*kA*kG*kT) [Compound 958790],68 % UTC
5,958685 (antisense kA*kG*k[5mC]*dT*dA*dT*dG*dG*dA*dA*dA*dG*dT*kG*kT*k[5mC]) [Compound 958685],24 % UTC

# Same assay, conditions: Table 26; Yap1 mRNA by 3-10-3 cEt gapmers targeting SEQ ID NO.: 1, and 2; percent of untreated control
row,Substance,YAP1 (% UTC)
1,1075340 (antisense k[5mC]*k[5mC]*k[5mC]*dG*dA*dA*d[5mC]*dA*d[5mC]*d[5mC]*d[5mC]*dA*dA*kA*kA*kA) [compound 1075340],103 % UTC
2,1075852 (kG*kA*kT*dA*dA*dG*d[5mC]*d[5mC]*dG*dA*dA*dT*dA*kT*kG*kG; antisense) [compound 1075852],58 % UTC
3,1074412 (k[5mC]*kT*kG*dT*dG*dA*dA*dA*dG*dA*dG*dG*dT*k[5mC]*kA*kG; antisense) [compound 1074412],55 % UTC
4,1075564 (kA*kT*kA*dT*dA*dA*d[5mC]*dA*dG*dG*d[5mC]*d[5mC]*dA*k[5mC]*k[5mC]*kA; antisense) [compound 1075564],81 % UTC
5,1074156 (kA*kG*kG*dG*d[5mC]*dT*dA*d[5mC]*dG*d[5mC]*d[5mC]*d[5mC]*dG*kG*kA*k[5mC]; antisense) [compound 1074156],96 % UTC
6,1074476 (kT*kT*k[5mC]*d[5mC]*dG*dA*d[5mC]*dA*dA*dA*dA*d[5mC]*d[5mC]*kA*kA*k[5mC]; antisense) [compound 1074476],18 % UTC
7,1075756 (kA*kT*kT*dT*dA*d[5mC]*d[5mC]*d[5mC]*dT*dG*d[5mC]*d[5mC]*dA*k[5mC]*kT*kT; antisense) [compound 1075756],49 % UTC
8,1075436 (antisense k[5mC]*k[5mC]*kT*dT*dA*dA*dA*d[5mC]*dG*dA*dT*dA*dA*kA*kG*kT) [compound 1075436],89 % UTC

# Same assay, conditions: Table 27; Yap1 mRNA by 3-10-3 cEt gapmers targeting SEQ ID NO.: 1, and 2; percent of untreated control
row,Substance,YAP1 (% UTC)
1,1075085 (antisense kT*kG*k[5mC]*dG*dG*dA*dA*dA*d[5mC]*dA*dA*dG*dT*kG*kT*kA) [compound 1075085],11 % UTC
2,1075501 (k[5mC]*kA*kT*dA*dA*dA*dT*dT*dA*dA*dG*d[5mC]*d[5mC]*kA*kA*k[5mC]; antisense) [compound 1075501],67 % UTC
3,1074765 (k[5mC]*kA*kA*dT*dG*d[5mC]*dT*dA*d[5mC]*d[5mC]*d[5mC]*dA*dA*kT*kA*k[5mC]; antisense) [compound 1074765],34 % UTC

# Same assay, conditions: Table 28; Yap1 mRNA as percent of untreated control; 3-10-3 cEt gapmers targeting SEQ ID NO.: 1, and 2
row,Substance,YAP1 (% UTC)
1,1074830 (kG*kA*kG*dG*dA*dT*dA*dA*dA*dA*dT*d[5mC]*d[5mC]*kA*k[5mC]*k[5mC]; antisense) [compound 1074830],89 % UTC

# Same assay, conditions: Table 29; Yap1 mRNA as percent of untreated control; 3-10-3 cEt gapmers targeting SEQ ID NO.: 1, and 2
row,Substance,YAP1 (% UTC)
1,1076463 (kG*kA*kT*dT*dA*dG*dT*dA*dA*d[5mC]*dA*d[5mC]*dT*kG*kA*kT; antisense) [compound 1076463],38 % UTC
2,1074415 (kG*k[5mC]*k[5mC]*dA*dA*d[5mC]*dT*dG*dT*dG*dA*dA*dA*kG*kA*kG; antisense) [compound 1074415],10 % UTC
3,1074671 (antisense k[5mC]*kA*kA*dG*dT*dA*dG*d[5mC]*dT*dT*dT*dG*dA*kT*k[5mC]*kT) [compound 1074671],8 % UTC
4,1075087 (antisense kT*k[5mC]*kT*d[5mC]*dA*dA*dT*dA*dA*dG*dT*dT*dA*kT*kA*kG) [compound 1075087],39 % UTC
5,1075951 (antisense k[5mC]*kA*k[5mC]*dG*dG*dA*dA*dG*dA*dG*d[5mC]*dT*dT*kG*k[5mC]*kA) [compound 1075951],34 % UTC
6,1075759 (k[5mC]*k[5mC]*kT*dT*dA*dT*dA*dA*dA*dT*dT*dA*dT*kG*kA*k[5mC]; antisense) [compound 1075759],44 % UTC

# Same assay, conditions: Table 34; Yap1 mRNA as percent of untreated control; 3-10-3 cEt gapmers targeting SEQ ID NO: 1 and 2; single dose
row,Substance,YAP1 (% UTC)
1,1075156 (kA*kT*kT*dA*dT*dA*dT*dG*dA*d[5mC]*dT*d[5mC]*dT*kG*k[5mC]*kT; antisense) [compound 1075156],22 % UTC

# Same assay, conditions: Table 35; Yap1 mRNA as percent of untreated control; 3-10-3 cEt gapmers targeting SEQ ID NO: 1 and 2; single dose
row,Substance,YAP1 (% UTC)
1,1074773 (k[5mC]*kA*kG*dT*dT*dA*dA*dA*dA*dT*d[5mC]*dT*dT*kA*kT*k[5mC]; antisense) [compound 1074773],94 % UTC
2,1074837 (kT*kA*kA*d[5mC]*dA*dA*d[5mC]*dA*dT*dG*d[5mC]*dT*dT*kG*k[5mC]*kG; antisense) [compound 1074837],11 % UTC
3,1074293 (antisense kG*k[5mC]*kT*dG*dT*dT*dT*d[5mC]*dA*d[5mC]*dT*dG*dG*kA*kG*k[5mC]) [compound 1074293],54 % UTC
4,1075669 (antisense kA*kA*kA*dT*dT*dA*dT*dT*dG*dG*dT*dG*dA*k[5mC]*kA*k[5mC]) [compound 1075669],70 % UTC
5,1074869 (kA*kG*kT*dA*d[5mC]*d[5mC]*dT*dA*dA*d[5mC]*dA*dT*dA*kT*kG*kA; antisense) [compound 1074869],31 % UTC
6,1074389 (kG*k[5mC]*kA*dG*dA*d[5mC]*dT*dT*dG*dG*d[5mC]*dA*dT*k[5mC]*kA*kG; antisense) [compound 1074389],14 % UTC
